# Patent US5049549A, “Rhodomycins with a modified carbohydrate unit” (Behringwerke Aktiengesellschaft, priority 1988, dated 1991)
# Read-outs that look alike come from different tables or passages of the source.
# Key:
# [1] = test system: A 549 cells; test: Proliferation test (MTT reduction), A549; format: cell-based
# Procedure: (§1) L1210, A 549 or HT 29 in the exponential growth phase are incubated in a cell density of 5×10^3 cells/ml in RPMI 1640 medium in a 96-well microtest plate with various concentrations of the test substance at 37° C., 5% CO2 and 95% relative humidity for 72 h. Control experiments contain merely growth medium in place of test substance. Determinations in quadruplicate are made up for each test substance and for the control. After incubation for 65 h, 50 µl of an MTT solution (2.5 mg/ml in phosphate-buffered saline) are added. In the presence of live cells MTT is reduced to a dark-red insoluble formazan dyestuff. This reaction is complete after 7 h (L1210 cells) or after 24 h (A 549, HT 29 cells), and the supernatant medium is carefully aspirated off. The insoluble dyestuff is dissolved by addition of 100 µl of DMSO, and the extinction of the solution produced in this way is subsequently measured at a wavelength of 492 nm for each well in a 340 CC Multiscan Photometer from Flow.
# (§2) The ratio of the extinctions with treated and untreated cells yields a dose-effect plot from which the concentration which just kills 50% of the cells (IC50) can be read off. The coefficient of variation for repeat tests is less than 15%.
# [2] = test system: L1210 cells; test: Proliferation test (MTT reduction), L1210; format: cell-based
# Procedure: as §1, §2
# [3] = test system: HT 29 cells; test: Proliferation test (MTT reduction), HT29; format: cell-based; settings: Homo sapiens, read-out: IC50 MTT assay HT29
# Procedure: as §1, §2
# [4] = test system: L1210 leukemia cells; test: Cytotoxicity for L1210 leukemia cells (stem cell assay, SCA); format: cell-based; settings: Mus musculus
# Procedure: The test was carried out in accordance with the methods described by Hamburger and Salmon, with the modifications described below.
# Conditioned medium was replaced by McCoy 5A medium. As a consequence of the high cloning rate of the L1210 leukemia cells in soft agar, the number of tumor cells per plate was reduced to 5×10^2.
# The cells were incubated with various concentrations of the test substance at 37° C. for 1 h. The cells were subsequently washed twice with McCoy 5A medium and subsequently plated out in a two-layer agar system as upper layer in accordance with the Hamburger and Salmon method.
# Additional parallel experiments were carried out using a continuous incubation time, in which case various concentrations of the test substance were mixed with the upper agar layer before plating out of the cells.
# The plates were incubated in an incubator with 5% CO2, 20% O2 and 95% relative humidity for 5-7 days. After this time, colonies with a diameter of 60 μm were counted using an invertoscope.
# The results have been reported as the percentage of colonies in treated versus untreated groups. The coefficient of variation for repeat experiments was less than 15%.
# The IC50 for continuous and one-hour incubation was determined from the dose-effect plot (Tab. 1).
# [5] = test system: patients; settings: cited from earlier work
# [6] = Homo sapiens, A549, 72 h; read-out: IC50 MTT assay A549
# [7] = Mus musculus, L1210, 72 h; read-out: IC50 MTT assay L1210
# [8] = L1210, 1 h incubation, read-out: IC50 SCA 1 h
# [9] = L1210, 1 h, read-out: IC50 SCA 1 h
Structure (SMILES),"IC50 [1, 6] [µg/mL]","IC50 [2, 7] [µg/mL]","IC50 ([3]; HT-29, HT29, 72 h) [µg/mL]","IC50 [4, 8] [µg/mL]",further results
"CC[C@@]1(O)C[C@H](O[C@H]2C[C@H](NC(=O)C(F)(F)F)[C@H](NC(=O)C(F)(F)F)[C@H](C)O2)c2c(O)c3c(c(O)c2[C@H]1O)C(=O)c1cccc(O)c1C3=O [compound 15, 7-O-(3',4'-bis-(trifluoroacetamido)-2',3',4',6'-tetradeoxy-alpha-L-lyxohexopyranosyl)-β-rhodomycinone]",0.059,0.037,0.1,0.43,
"CC[C@@]1(O)C[C@H](O[C@H]2C[C@H](N=[N+]=[N-])[C@H](NC(=O)C(F)(F)F)[C@H](C)O2)c2c(O)c3c(c(O)c2[C@H]1O)C(=O)c1cccc(O)c1C3=O [compound 13, 7-O-(3'-Azido-2',3',4',6'-tetradeoxy-4'-trifluoroacetamido-alpha-L-lyxohexopyranosyl)-β-rhodomycinone]",0.1,0.1,0.2,0.29,
"CC[C@@]1(O)C[C@H](O[C@H]2C[C@H](N)[C@H](N)[C@H](C)O2)c2c(O)c3c(c(O)c2[C@H]1O)C(=O)c1cccc(OC)c1C3=O [compound 10, 4-O-Methyl-7-O-(3',4'-diamino-2',3',4',6'-tetradeoxy-alpha-L-lyxohexopyranosyl)-β-rhodomycinone]",0.095,0.039,0.033,,
"CC[C@@]1(O)C[C@H](O[C@H]2C[C@H](N)[C@H](N)[C@H](C)O2)c2c(O)c3c(c(O)c2[C@H]1O)C(=O)c1cccc(O)c1C3=O [compound 16, 7-O-(3',4'-Diamino-2',3',4',6'-tetradeoxy-alpha-L-lyxohexo-pyranosyl)-β-rhodomycinone]",0.04,0.01,0.069,0.069,
"CC[C@@]1(O)C[C@H](O[C@H]2C[C@H](NC(=O)C(F)(F)F)[C@@H](N=[N+]=[N-])[C@H](C)O2)c2c(O)c3c(c(O)c2[C@H]1O)C(=O)c1cccc(O)c1C3=O [compound 17, 7-O-(4'-Azido-2',3',4',6'-tetradeoxy-3'-trifluoroacetamido-alpha-L-arabinohexopyranosyl)-β-rhodomycinone]",,,,,"IC50 ([1]; Homo sapiens, A549, 72 h, read-out: IC50 MTT assay A549): 0.52 µg/mL; IC50 ([2]; Mus musculus, L1210, 72 h, read-out: IC50 MTT assay L1210): 0.33 µg/mL; IC50 ([3]; HT-29, 72 h): 0.34 µg/mL; IC50 [4, 9]: 1.4 µg/mL"
CC[C@@]1(O)C[C@H](O[C@H]2C[C@H](O)[C@H](N)[C@H](C)O2)c2c(O)c3c(c(O)c2[C@H]1O)C(=O)c1cccc(OC)c1C3=O [compound 8],0.14,0.043,0.043,,
COc1cccc2c1C(=O)c1c(O)c3c(c(O)c1C2=O)C[C@@](O)(C(C)=O)C[C@@H]3O[C@H]1C[C@H](N)[C@H](O)[C@H](C)O1 [daunorubicin],,,,,side effects of the treatment ([5]; in vivo): damage to the circulatory system and symptoms characteristic thereof
"COc1cccc2c1C(=O)c1c(O)c3c(c(O)c1C2=O)C[C@@](O)(C(=O)CO)C[C@@H]3O[C@H]1C[C@H](N)[C@H](O)[C@H](C)O1 [Adriamycin, reference compound]",,,,,"side effects of the treatment ([5]; clinical use, specialist literature): damage to the circulatory system and symptoms characteristic thereof; IC50 [4, 9]: 0.04 µg/mL; IC50 ([4]; L1210, read-out: IC50 SCA cont.): 0.02 µg/mL"
"CC[C@@]1(O)C[C@H](O[C@H]2C[C@H](N)[C@@H](NC(=O)C(F)(F)F)[C@H](C)O2)c2c(O)c3c(c(O)c2[C@H]1O)C(=O)c1cccc(O)c1C3=O [compound 12, 7-O-(3'-Amino-2',3',4',6'-tetradeoxy-4'-trifluoroacetamido-alpha-L-arabinohexopyranosyl)-β-rhodomycinone]",0.027,0.03,0.022,0.44,
